# Patent US12673074B2, “Mycobacterium for use in cancer therapy” (TONRON INTERNATIONAL LIMITED, priority 2020, dated 2026)
# Legend:
# [1] = tested on: advanced pancreatic cancer; experiment: Randomised, open-label, phase II study of gemcitabine with and without IMM-101 (IMAGE 1); format: in vivo, human
# Excerpt: This study is described in U.S. Pat. No. 8,617,520 assigned to the applicant, and the results were published by Dalgeish et al, in the paper entitled “Randomised, open-label, phase II study of gemcitabine with and without IMM-101 for advanced pancreatic cancer”. [Br. J. Cancer. 2016 Sep. 27; 115(7): 789-796] and also as “Long term survival in IMAGE 1 (Immune Modulation And Gemcitabine Evaluation 1), a randomized, open-label phase II trial comparing gemcitabine with and without IMM-101 in advanced pancreatic cancer”; Angus George Dalgleish and The IMAGE 1 Trial Investigators; Journal of Clinical Oncology 2015 33:15_suppl, 3051-3051.
# In summary, this study compared, in patients with advanced pancreatic cancer, the effects of gemcitabine (GEM) in combination with IMM-101 (a suspension of heat-killed whole cell M. obuense in borate-buffered saline) to gemcitabine alone on: Safety and tolerability, including QoL; clinical signs and symptoms of disease; Overall survival (OS), progression-free survival (PFS), and overall response rate (ORR; Selected markers of tumour burden and immunological status
# Disease outcome—patients, who provided informed consent, participated in a screening period of up to 28 days to establish eligibility. […]
# [2] = tested on: advanced pancreatic cancer; conditions: phase II trial, metastatic pancreatic cancer patients; gemcitabine therapy with or without addition of IMM-101 (background); cited from earlier work
smiles,measurement,setting,value
"Nc1ccn([C@@H]2O[C@H](CO)[C@@H](O)C2(F)F)c(=O)n1 [GEM, gemcitabine]",patients with BOR of PD,[1]; PS2 patients,2 patients
same,OS,[1]; pre-defined metastatic subgroup (84%),4.4 months
same,overall survival,[2],4.4 months
